From patent publication US20220289794A1, “SYNTHETIC ANTIMICROBIAL PEPTIDES” (priority 2019, published 2022)
In brackets after ≈: the same amount, converted by molar mass. Where two headings read alike, the source gives them in different places. Non-standard residues stand in square brackets, D forms with d. Residues, ends and D or L forms follow the SMILES beside them. dDip = N[C@@H](C(=O)O)C(c1ccccc1)c1ccccc1; 2Nal = N[C@@H](Cc1ccc2ccccc2c1)C(=O)O; d2Nal = N[C@H](Cc1ccc2ccccc2c1)C(=O)O

Experiments:
[1] = test system: Methicillin-resistant Staphylococcus aureus MRSA (ATCC BAA-1556); conditions: ATCC BAA-1556
S. aureus ATCC 29213 = conditions: ATCC 29213
[2] = test system: Pseudomonas aeruginosa (ATCC 27883)
[3] = test system: Escherichia coli (ATCC 25922); conditions: ATCC 25922
in vitro = conditions: human, fresh human red blood cells (washed), pH 7.4

| Structure (SMILES) | MIC MRSA ATCC BAA-1556 [1] [µg/mL] | MIC S. aureus ATCC 29213 (S. aureus ATCC 29213) [µg/mL] | MIC P. aeruginosa ATCC 27883 ([2]; ATCC 27883) [µg/mL] | MIC E. coli ATCC 25922 [3] [µg/mL] | HC50 at 0.5 h (in vitro) [µg/mL] | MIC P. aeruginosa ATCC 27883 ([2]; P. aeruginosa ATCC 27883) [µg/mL] |
| --- | --- | --- | --- | --- | --- | --- |
| N=C(N)NCCC[C@@H](N)C(=O)N[C@H](CCCNC(=N)N)C(=O)N[C@H](CCCNC(=N)N)C(=O)N[C@H](CCCNC(=N)N)C(=O)N[C@@H](Cc1c[nH]c2ccccc12)C(=O)N[C@H](Cc1ccc2ccccc2c1)C(=O)N[C@H](Cc1ccc2ccccc2c1)C(=O)O [IFX-109-1] (H-[dR][dR][dR][dR]W[d2Nal][d2Nal]-OH) | 3.1 (≈ 2.53 µM) | 3.1 (≈ 2.53 µM) | 12.5 (≈ 10.2 µM) | 12.5 (≈ 10.2 µM) | 375 |  |
| N=C(N)NCCC[C@H]1NC(=O)[C@@H](CCCNC(=N)N)NC(=O)[C@@H](CCCNC(=N)N)NC(=O)[C@@H](CCCNC(=N)N)NC(=O)[C@@H](Cc2ccc3ccccc3c2)NC(=O)[C@@H](Cc2ccc3ccccc3c2)NC(=O)[C@H](Cc2c[nH]c3ccccc23)NC1=O [IFX-109, c[arg-arg-arg-arg-Trp-naI-naI]] (cyclo(W[d2Nal][d2Nal][dR][dR][dR][dR])) | 1.5 (≈ 1.24 µM) | 3.1 (≈ 2.57 µM) |  | 12.5 (≈ 10.4 µM) | 190 | 12.5 (≈ 10.4 µM) |
| N=C(N)NCCC[C@@H]1NC(=O)[C@H](CCCNC(=N)N)NC(=O)[C@H](CCCNC(=N)N)NC(=O)[C@@H](Cc2ccc3ccccc3c2)NC(=O)[C@@H](Cc2ccc3ccccc3c2)NC(=O)[C@H](Cc2c[nH]c3ccccc23)NC(=O)[C@H](CCCNC(=N)N)NC1=O [IFX-112, c[Arg-Arg-Arg-Arg-Trp-naI-naI]] (cyclo(RRRRW[d2Nal][d2Nal])) | 1.5 (≈ 1.24 µM) | 3.1 (≈ 2.57 µM) |  | 12.5 (≈ 10.4 µM) | 295 | 12.5 (≈ 10.4 µM) |
| N=C(N)NCCC[C@H](NC(=O)[C@H](CCCNC(=N)N)NC(=O)[C@@H](N)CCCNC(=N)N)C(=O)N[C@@H](CCCNC(=N)N)C(=O)N[C@@H](C(=O)N[C@@H](C(=O)N[C@@H](C(=O)O)C(c1ccccc1)c1ccccc1)C(c1ccccc1)c1ccccc1)C(c1ccccc1)c1ccccc1 [IFX-072-1] (H-RRRR[dDip][dDip][dDip]-OH) | 6.2 (≈ 4.72 µM) | 3.1 (≈ 2.36 µM) | 12.5 (≈ 9.52 µM) | 6.2 (≈ 4.72 µM) | 470 |  |
| N=C(N)NCCC[C@@H](N)C(=O)N[C@H](CCCNC(=N)N)C(=O)N[C@H](CCCNC(=N)N)C(=O)N[C@H](CCCNC(=N)N)C(=O)N[C@@H](C(=O)N[C@@H](C(=O)N[C@@H](C(=O)O)C(c1ccccc1)c1ccccc1)C(c1ccccc1)c1ccccc1)C(c1ccccc1)c1ccccc1 [IFX-067-1] (H-[dR][dR][dR][dR][dDip][dDip][dDip]-OH) | 3.1 (≈ 2.36 µM) | 3.1 (≈ 2.36 µM) | 12.5 (≈ 9.52 µM) | 6.2 (≈ 4.72 µM) | 390 |  |
| N=C(N)NCCC[C@@H]1NC(=O)[C@@H](CCCNC(=N)N)NC(=O)[C@H](CCCNC(=N)N)NC(=O)[C@@H](CCCNC(=N)N)NC(=O)[C@@H](Cc2ccc3ccccc3c2)NC(=O)[C@@H](Cc2ccc3ccccc3c2)NC(=O)[C@H](Cc2c[nH]c3ccccc23)NC1=O [IFX-110, c[arg-Arg-arg-Arg-Trp-naI-naI]] (cyclo([dR]R[dR]RW[d2Nal][d2Nal])) | 1.5 (≈ 1.24 µM) | 3.1 (≈ 2.57 µM) |  | 12.5 (≈ 10.4 µM) | 225 | 12.5 (≈ 10.4 µM) |
| N=C(N)NCCC[C@@H](N)C(=O)N[C@@H](CCCNC(=N)N)C(=O)N[C@H](CCCNC(=N)N)C(=O)N[C@@H](CCCNC(=N)N)C(=O)N[C@@H](Cc1c[nH]c2ccccc12)C(=O)N[C@H](Cc1ccc2ccccc2c1)C(=O)N[C@H](Cc1ccc2ccccc2c1)C(=O)O [IFX-110-1] (H-[dR]R[dR]RW[d2Nal][d2Nal]-OH) | 3.1 (≈ 2.53 µM) | 3.1 (≈ 2.53 µM) | 25 (≈ 20.4 µM) | 25 (≈ 20.4 µM) | 330 |  |
| N=C(N)NCCC[C@H]1NC(=O)[C@H](Cc2ccc3ccccc3c2)NC(=O)[C@H](Cc2ccc3ccccc3c2)NC(=O)[C@H](Cc2c[nH]c3ccccc23)NC(=O)[C@@H](CCCNC(=N)N)NC(=O)[C@@H](CCCNC(=N)N)NC(=O)[C@@H](CCCNC(=N)N)NC1=O [IFX-113, c[arg-arg-arg-arg-Trp-NaI-NaI]] (cyclo([dR][dR][dR][dR]W[2Nal][2Nal])) | 1.5 (≈ 1.24 µM) | 3.1 (≈ 2.57 µM) |  | 12.5 (≈ 10.4 µM) | 365 | 12.5 (≈ 10.4 µM) |

Now from value to compound, other results behind:

| MIC MRSA ATCC BAA-1556 [1] [µg/mL] | MIC S. aureus ATCC 29213 (S. aureus ATCC 29213) [µg/mL] | MIC P. aeruginosa ATCC 27883 ([2]; ATCC 27883) [µg/mL] | MIC E. coli ATCC 25922 [3] [µg/mL] | HC50 at 0.5 h (in vitro) [µg/mL] | Structure (SMILES) | MIC P. aeruginosa ATCC 27883 ([2]; P. aeruginosa ATCC 27883) [µg/mL] |
| --- | --- | --- | --- | --- | --- | --- |
| 12.5 (≈ 11.4 µM) | 12.5 (≈ 11.4 µM) | 128 (≈ 117 µM) | 64 (≈ 58.5 µM) | 610 | NCCCC[C@@H]1NC(=O)[C@H](CCCCN)NC(=O)[C@H](CCCCN)NC(=O)[C@H](Cc2ccc3ccccc3c2)NC(=O)[C@H](Cc2ccc3ccccc3c2)NC(=O)[C@H](Cc2c[nH]c3ccccc23)NC(=O)[C@H](CCCCN)NC1=O [IFX-126, c[Lys-Lys-Lys-Lys-Trp-NaI-NaI]] (cyclo([2Nal][2Nal]KKKKW)) |  |
| 3.1 (≈ 2.28 µM) | 3.1 (≈ 2.28 µM) | 16 (≈ 11.8 µM) | 16 (≈ 11.8 µM) | 410 | N=C(N)NCCC[C@H]1NC(=O)[C@@H](CCCNC(=N)N)NC(=O)[C@@H](CCCNC(=N)N)NC(=O)[C@@H](Cc2ccc3ccccc3c2)NC(=O)[C@@H](Cc2ccc3ccccc3c2)NC(=O)[C@@H](Cc2c[nH]c3ccccc23)NC(=O)[C@@H](CCCNC(=N)N)NC(=O)[C@@H](CCCNC(=N)N)NC1=O [IFX-124, c[arg-arg-arg-arg-arg-trp-naI-naI]] (cyclo([d2Nal][d2Nal][dR][dR][dR][dR][dR][dW])) |  |
| 3.1 (≈ 2.84 µM) | 3.1 (≈ 2.84 µM) | 64 (≈ 58.5 µM) | 64 (≈ 58.5 µM) | 420 | NCCCC[C@@H]1NC(=O)[C@@H](CCCCN)NC(=O)[C@H](CCCCN)NC(=O)[C@@H](Cc2ccc3ccccc3c2)NC(=O)[C@@H](Cc2ccc3ccccc3c2)NC(=O)[C@H](Cc2c[nH]c3ccccc23)NC(=O)[C@@H](CCCCN)NC1=O [IFX-129, c[Lys-lys-Lys-lys-Trp-naI-naI]] (cyclo(K[dK]K[dK]W[d2Nal][d2Nal])) |  |
| 6.2 (≈ 5.67 µM) | 6.2 (≈ 5.67 µM) | 64 (≈ 58.5 µM) | 64 (≈ 58.5 µM) | 590 | NCCCC[C@@H]1NC(=O)[C@@H](CCCCN)NC(=O)[C@H](CCCCN)NC(=O)[C@@H](CCCCN)NC(=O)[C@@H](Cc2ccc3ccccc3c2)NC(=O)[C@@H](Cc2ccc3ccccc3c2)NC(=O)[C@H](Cc2c[nH]c3ccccc23)NC1=O [IFX-128, c[lys-Lys-lys-Lys-Trp-naI-naI]] (cyclo(KW[d2Nal][d2Nal][dK]K[dK])) |  |
| 6.2 (≈ 5.67 µM) | 6.2 (≈ 5.67 µM) | 128 (≈ 117 µM) | 64 (≈ 58.5 µM) | 540 | NCCCC[C@@H]1NC(=O)[C@H](CCCCN)NC(=O)[C@H](CCCCN)NC(=O)[C@@H](Cc2ccc3ccccc3c2)NC(=O)[C@@H](Cc2ccc3ccccc3c2)NC(=O)[C@H](Cc2c[nH]c3ccccc23)NC(=O)[C@H](CCCCN)NC1=O [IFX-127, c[Lys-Lys-Lys-Lys-Trp-naI-naI]] (cyclo(KKKKW[d2Nal][d2Nal])) |  |
| 12.5 (≈ 11.4 µM) | 6.2 (≈ 5.67 µM) | 128 (≈ 117 µM) | 128 (≈ 117 µM) | 880 | NCCCC[C@H]1NC(=O)[C@@H](CCCCN)NC(=O)[C@@H](CCCCN)NC(=O)[C@@H](Cc2ccc3ccccc3c2)NC(=O)[C@@H](Cc2ccc3ccccc3c2)NC(=O)[C@@H](Cc2c[nH]c3ccccc23)NC(=O)[C@@H](CCCCN)NC1=O [IFX-130, c[lys-lys-lys-lys-trp-naI-naI]] (cyclo([d2Nal][d2Nal][dK][dK][dK][dK][dW])) |  |
| 3.1 (≈ 2.53 µM) | 3.1 (≈ 2.53 µM) | 25 (≈ 20.4 µM) | 25 (≈ 20.4 µM) | 310 | N=C(N)NCCC[C@H](NC(=O)[C@@H](CCCNC(=N)N)NC(=O)[C@@H](N)CCCNC(=N)N)C(=O)N[C@H](CCCNC(=N)N)C(=O)N[C@@H](Cc1c[nH]c2ccccc12)C(=O)N[C@H](Cc1ccc2ccccc2c1)C(=O)N[C@H](Cc1ccc2ccccc2c1)C(=O)O [IFX-111-1] (H-R[dR]R[dR]W[d2Nal][d2Nal]-OH) |  |
| 1.5 (≈ 1.23 µM) | 3.1 (≈ 2.55 µM) | 12.5 (≈ 10.3 µM) |  | 400 | N=C(N)NCCC[C@@H]1NC(=O)[C@@H](CCCNC(=N)N)NC(=O)[C@H](CCCNC(=N)N)NC(=O)[C@@H](Cc2ccc3ccccc3c2)NC(=O)[C@@H](Cc2ccc3ccccc3c2)NC(=O)[C@@H](Cc2ccc3ccccc3c2)NC(=O)[C@@H](CCCNC(=N)N)NC1=O [IFX-084, c[Arg-arg-Arg-arg-naI-naI-naI]] (cyclo(R[dR]R[dR][d2Nal][d2Nal][d2Nal])) |  |
| 1.5 (≈ 1.16 µM) | 3.1 (≈ 2.39 µM) | 12.5 (≈ 9.66 µM) |  | 340 | N=C(N)NCCC[C@@H]1NC(=O)[C@@H](CCCNC(=N)N)NC(=O)[C@H](CCCNC(=N)N)NC(=O)[C@@H](C(c2ccccc2)c2ccccc2)NC(=O)[C@@H](C(c2ccccc2)c2ccccc2)NC(=O)[C@@H](C(c2ccccc2)c2ccccc2)NC(=O)[C@@H](CCCNC(=N)N)NC1=O [IFX-070, c[Arg-arg-Arg-arg-dip-dip-dip]] (cyclo(R[dR]R[dR][dDip][dDip][dDip])) |  |
